# Active and inactive are the calls of the source. The calls are words filed in the database; no cut-off is given here.
# Experiments:
# LN-229 = test: Antiproliferative activity against human LN-229 cells assessed as inhibition of cell viability measured after 72 hrs by colorimetric MTS viability assay; type: functional, cell-based; settings: LN-229, 72 h
# Listeria innocua = test: Antibacterial activity against Listeria innocua LMG11387 assessed as growth inhibition after 20 hrs by broth microdilution method; type: functional
# HL-60 = test: cells; type: functional, cell-based; settings: Homo sapiens, HL-60, 72 h
# Description: Antiproliferative activity against human HL-60 cells assessed as inhibition of cell viability measured after 72 hrs by real-time IncuCyte proliferation analysis
# [1] = Antiproliferative activity against human HAP1 cells assessed as inhibition of cell viability measured after 72 hrs by colorimetric MTS viability assay; type: functional, cell-based; settings: HAP1, 72 h
# Jurkat = test: cells; type: functional, cell-based; settings: Homo sapiens, 72 h
# Description: Cytotoxicity against human Jurkat cells assessed as inhibition of cell viability measured after 72 hrs by real-time IncuCyte proliferation analysis
# K562 = test: cells; type: functional, cell-based; settings: Homo sapiens, K562, 72 h
# Description: Antiproliferative activity against human K562 cells assessed as inhibition of cell viability measured after 72 hrs by real-time IncuCyte proliferation analysis
# [2] = system: Salmonella enterica subsp. enterica; test: Antibacterial activity against Salmonella enterica subsp.enterica ATCC13076 assessed as growth inhibition after 20 hrs by broth microdilution method; type: functional
# MV4-11 = test: cells; type: functional, cell-based; settings: Homo sapiens, MV4-11, 72 h
# Description: Cytotoxicity against human MV4-11cells assessed as inhibition of cell viability measured after 72 hrs by real-time IncuCyte proliferation analysis
# CAPAN-1 = test: cells; type: functional, cell-based; settings: Homo sapiens, CAPAN-1, 72 h
# Description: Antiproliferative activity against human CAPAN-1 cells assessed as inhibition of cell viability measured after 72 hrs by colorimetric MTS viability assay
# NCI-H460 = test: cells; type: functional, cell-based; settings: Homo sapiens, NCI-H460, 72 h
# Description: Antiproliferative activity against human NCI-H460 cells assessed as inhibition of cell viability measured after 72 hrs by colorimetric MTS viability assay
# Staphylococcus aureus = test: Antibacterial activity against Staphylococcus aureus ATCC65385 assessed as growth inhibition after 20 hrs by broth microdilution method; type: functional
# [3] = Antiproliferative activity against human DND41 cells assessed as inhibition of cell viability measured after 72 hrs by real-time IncuCyte proliferation analysis; type: functional, cell-based; settings: DND41, 72 h
# HCT-116 = test: Antiproliferative activity against human HCT-116 cells assessed as inhibition of cell viability measured after 72 hrs by colorimetric MTS viability assay; type: functional, cell-based; settings: HCT-116, 72 h
# Escherichia coli = test: Antibacterial activity against Escherichia coli ATCC47076 assessed as growth inhibition after 20 hrs by broth microdilution method; type: functional
# Rec1 = test: cells; type: functional, cell-based; settings: Homo sapiens, Rec1, 72 h
# Description: Cytotoxicity against human REC1 cells assessed as inhibition of cell viability measured after 72 hrs by real-time IncuCyte proliferation analysis
# Z-138 = test: cells; type: functional, cell-based; settings: Homo sapiens, Z-138, 72 h
# Description: Antiproliferative activity against human Z138 cells assessed as inhibition of cell viability measured after 72 hrs by real-time IncuCyte proliferation analysis
MIC50 (Listeria innocua),IC50 (HL-60),IC50 (Jurkat),IC50 (K562),MIC50 [2],IC50 (MV4-11),IC50 (CAPAN-1),IC50 (NCI-H460),MIC50 (Staphylococcus aureus),IC50 (HCT-116),MIC50 (Escherichia coli),IC50 (Rec1),IC50 (Z-138),Compound,IC50 (LN-229),IC50 [1],IC50 [3]
193 µg/mL,7000 nM,3.7 µM,86.1 µM,33 µg/mL,12.8 µM,4.1 µM,8.3 µM,95.5 µg/mL,12 µM,41.6 µg/mL,2000 nM,10.3 µM,CC1(C)CC[C@]2(C(=O)O)CC[C@]3(C)C(=CC[C@@H]4[C@@]5(C)Cc6nnn(Cc7ccc8[nH]ccc8c7)c6C(C)(C)[C@@H]5CC[C@]43C)[C@@H]2C1,37.7 µM,3.3 µM,12.1 µM
153 µg/mL,1500 nM,3.2 µM,49.3 µM,inactive,12.9 µM,4.5 µM,8.6 µM,37 µg/mL,11.5 µM,inactive,1700 nM,9.4 µM,C[C@H]1[C@H](C)CC[C@]2(C(=O)O)CC[C@]3(C)C(=CC[C@@H]4[C@@]5(C)Cc6nnn(Cc7ccc8[nH]ccc8c7)c6C(C)(C)[C@@H]5CC[C@]43C)[C@H]12,33.1 µM,4.3 µM,11.5 µM
255 µg/mL,1500 nM,4.1 µM,52.1 µM,inactive,15.8 µM,9.6 µM,7.6 µM,274 µg/mL,11.1 µM,387 µg/mL,2100 nM,11.6 µM,CC1(C)CC[C@]2(C(=O)O)CC[C@]3(C)C(=CC[C@@H]4[C@@]5(C)Cc6nnn(CCc7c[nH]c8ccccc78)c6C(C)(C)[C@@H]5CC[C@]43C)[C@@H]2C1,55.1 µM,> 7.9 µM,9.9 µM
74.4 µg/mL,3300 nM,5.2 µM,53.7 µM,inactive,12.6 µM,2.6 µM,7.9 µM,60.5 µg/mL,11 µM,inactive,4900 nM,10.3 µM,C[C@H]1[C@H](C)CC[C@]2(C(=O)O)CC[C@]3(C)C(=CC[C@@H]4[C@@]5(C)Cc6nnn(Cc7ccc8cc[nH]c8c7)c6C(C)(C)[C@@H]5CC[C@]43C)[C@H]12,32.2 µM,2.3 µM,13.9 µM

# — ChEMBL document CHEMBL4828727, “Antibacterial and antitumoral properties of 1,2,3-triazolo fused triterpenes and their mechanism of inhibiting the proliferation of HL-60 cells” (Eur J Med Chem, 2021)
